Structures are written as SMILES. Where “and” joins values, the source holds several entries; their conditions need not be identical. Identical values can stand only once.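 Values below derive from 48-hour exposures of cells grown in 96-well plates, with endpoints linearly interpolated between the two concentrations bracketing the appropriate inhibition level. GI50: concentration for 50% inhibition of growth. TGI denotes the concentration required for complete inhibition of growth.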 Some results are limits rather than exact numbers.

Some test systems named below: OVCAR-4 ovarian; NCI/ADR-RES ovarian; A549 NSCLC; KM12 colon; SF-295 CNS; U251 CNS; 786-0 renal; CAKI-1 renal; MDA-MB-435; K-562 leukemia.
Assay in all cases: NCI tumour cell line growth inhibition, 48 h

On to `Oc1c(Cl)cc(Cl)cc1C(c1cc(Cl)cc(Cl)c1O)C(Cl)(Cl)Cl`, for which the GI50 is 3.21 µM with OVCAR-4 ovarian; 1.99 µM in the experiment on NCI/ADR-RES ovarian; 3.77 µM in the experiment with A549 NSCLC; 2.83 µM in the experiment on KM12 colon; 1.35 µM in the experiment with SF-295 CNS; 2.52 µM in the experiment with U251 CNS. Besides, the GI50 in the experiment on 786-0 renal is 2.4 µM; in the experiment on CAKI-1 renal, 0.472 µM; with MDA-MB-435 it was 2.13 µM; in the experiment on K-562 leukemia it was 1.1 µM. For the same compound, the TGI with OVCAR-4 ovarian is 19 µM; with NCI/ADR-RES ovarian, 7.25 µM; in the experiment on A549 NSCLC it was 14.4 µM; in the experiment on KM12 colon, 10.1 µM; in the experiment with SF-295 CNS, 3.53 µM; with U251 CNS it was 14.4 µM. The TGI with 786-0 renal worked out at 7.45 µM; in the experiment with CAKI-1 renal, 2.06 µM; in the experiment with MDA-MB-435, 5.12 µM; in the experiment with K-562 leukemia, 20.4 µM.
In the case of `O=C(O)c1c(=O)cccc2ssc12`, the GI50 was 2.21 µM in the experiment on OVCAR-4 ovarian; 2.4 µM with NCI/ADR-RES ovarian; 1.86 µM in the experiment with A549 NSCLC; 1.9 µM with KM12 colon; 1.67 µM in the experiment on SF-295 CNS; 1.74 µM with U251 CNS. For the same compound, the GI50 is 1.88 µM in the experiment with 786-0 renal, 12 µM in the experiment on CAKI-1 renal, 1.93 µM in the experiment with MDA-MB-435 and 2.04 µM in the experiment with K-562 leukemia. Further, the TGI in the experiment on OVCAR-4 ovarian is 4.87 µM; in the experiment on NCI/ADR-RES ovarian it was 5.68 µM; with A549 NSCLC, 3.77 µM; in the experiment on KM12 colon it was 3.72 µM; with SF-295 CNS, 3.17 µM; in the experiment on U251 CNS it was 3.16 µM. In addition, the TGI was found to be 3.44 µM in the experiment with 786-0 renal, 24.6 µM in the experiment on CAKI-1 renal, 3.75 µM with MDA-MB-435 and 5.51 µM in the experiment on K-562 leukemia.
For the compound `O=C1OC(=O)C2CCCC3CCCC1C32` (stereo unspecified), the TGI in the experiment on OVCAR-4 ovarian, with NCI/ADR-RES ovarian, in the experiment with A549 NSCLC, in the experiment on KM12 colon, in the experiment with SF-295 CNS and in the experiment with U251 CNS was greater than 100 µM in each case. The TGI with 786-0 renal, in the experiment on CAKI-1 renal, in the experiment with MDA-MB-435 and with K-562 leukemia was greater than 100 µM throughout.
Regarding `NS(=O)(=O)c1ccc(N(/C=C/C(=O)C(F)(F)F)Cc2ccc(Cl)cc2)cc1`, the GI50 is 15.3 µM with NCI/ADR-RES ovarian; 27.7 µM in the experiment with A549 NSCLC; 22.7 µM with KM12 colon; 35.1 µM in the experiment with SF-295 CNS; 26.5 µM in the experiment with U251 CNS; 13.2 µM with 786-0 renal. In addition, the GI50 was 24.4 µM in the experiment with CAKI-1 renal, 30.6 µM in the experiment on MDA-MB-435 and 38.9 µM in the experiment on K-562 leukemia. Further, the TGI with NCI/ADR-RES ovarian is 54.9 µM; with A549 NSCLC it was greater than 100 µM; with KM12 colon it was 74.5 µM; with SF-295 CNS, greater than 100 µM; with U251 CNS, 75.8 µM; with 786-0 renal, 27 µM. For the same compound, the TGI in the experiment on CAKI-1 renal was 72.7 µM; with MDA-MB-435, 96.5 µM; with K-562 leukemia it was greater than 100 µM.
Turning to `C/C(O)=C(\C#N)C(=O)Nc1ccc(C(F)(F)F)cc1`, the GI50 in the experiment on OVCAR-4 ovarian was 91 µM; with NCI/ADR-RES ovarian it was 21.4 µM; with A549 NSCLC it was 26.5 µM; in the experiment with KM12 colon, 23.9 µM; in the experiment on U251 CNS, 5.34 µM; with 786-0 renal it was 34.3 µM. Moreover, the results for the GI50 in the experiment with CAKI-1 renal, in the experiment on MDA-MB-435 and in the experiment with K-562 leukemia were 5.46 µM, 37.1 µM and 8.13 µM, respectively. In addition, the TGI with OVCAR-4 ovarian, in the experiment on NCI/ADR-RES ovarian, in the experiment on A549 NSCLC, in the experiment on KM12 colon, in the experiment with U251 CNS and with 786-0 renal was greater than 100 µM throughout. The TGI in the experiment with CAKI-1 renal, in the experiment on MDA-MB-435 and in the experiment with K-562 leukemia was greater than 100 µM throughout.
For `CC(C)=CCC/C(C)=C\CCC1(C)OC(=O)C2CC21` (stereo unspecified), the GI50 in the experiment with OVCAR-4 ovarian is > 100 µM and 19.5 µM; with KM12 colon, 71.2 µM and 24.9 µM; with SF-295 CNS, > 100 µM and 49.8 µM; with U251 CNS it was 51.5 µM and 24.1 µM; in the experiment on 786-0 renal it was > 100 µM and 17.5 µM; with MDA-MB-435, 73.9 µM and 23.1 µM. The TGI is > 100 µM and 42.6 µM in the experiment with OVCAR-4 ovarian; greater than 100 µM with NCI/ADR-RES ovarian; > 100 µM and 62.8 µM in the experiment with KM12 colon; greater than 100 µM with SF-295 CNS; > 100 µM and 61.4 µM in the experiment on U251 CNS; > 100 µM and 32.7 µM with 786-0 renal. Moreover, the TGI was > 100 µM and 43 µM with CAKI-1 renal; > 100 µM and 56.7 µM in the experiment with MDA-MB-435; 48.4 µM and 40.5 µM in the experiment with K-562 leukemia.
On to `CC(=O)c1c(CO[N+](=O)[O-])n([O-])c2ccccc2[n+]1=O`, for which the TGI in the experiment on OVCAR-4 ovarian, with NCI/ADR-RES ovarian, in the experiment with A549 NSCLC, with SF-295 CNS, in the experiment on U251 CNS and in the experiment with 786-0 renal was greater than 100 µM each time. Also, the TGI in the experiment with CAKI-1 renal, in the experiment with MDA-MB-435 and with K-562 leukemia was greater than 100 µM each time.
In the case of `CC1(N)CCN(c2cnc(-c3cccc(Cl)c3Cl)c(N)n2)CC1`, the GI50 is 7.47 µM with OVCAR-4 ovarian; 17 µM in the experiment with NCI/ADR-RES ovarian; 16.6 µM with A549 NSCLC; 7.13 µM with KM12 colon; 11.1 µM in the experiment on SF-295 CNS; 9.02 µM in the experiment with U251 CNS. Moreover, the GI50 in the experiment with 786-0 renal is 8.36 µM; in the experiment with CAKI-1 renal, 14.8 µM; in the experiment with MDA-MB-435, 28.3 µM. Besides, the TGI was greater than 100 µM in the experiment on OVCAR-4 ovarian; greater than 100 µM in the experiment on NCI/ADR-RES ovarian; greater than 100 µM with A549 NSCLC; greater than 100 µM in the experiment with KM12 colon; 27.2 µM in the experiment with SF-295 CNS; 91.2 µM in the experiment on U251 CNS. The values for the TGI in the experiment on 786-0 renal, in the experiment with CAKI-1 renal and in the experiment with MDA-MB-435 were 22 µM, greater than 100 µM and greater than 100 µM, respectively.
As for `CCCCCCCCCNC(=O)/C=C/c1ccc(O)c(O)c1`, the GI50 in the experiment on OVCAR-4 ovarian is 13.4 µM; in the experiment with NCI/ADR-RES ovarian, 15.4 µM; with A549 NSCLC, 33.3 µM; in the experiment on KM12 colon, 9.02 µM; with SF-295 CNS, 18.8 µM; with U251 CNS, 10.2 µM. For the same compound, the GI50 is 14.3 µM in the experiment on 786-0 renal, 3.91 µM with CAKI-1 renal and 7.58 µM in the experiment on MDA-MB-435. The TGI in the experiment with OVCAR-4 ovarian is greater than 100 µM; in the experiment with NCI/ADR-RES ovarian, 46.8 µM; with A549 NSCLC it was greater than 100 µM; in the experiment on KM12 colon it was 23.6 µM; in the experiment on SF-295 CNS, 40.3 µM; in the experiment on U251 CNS, 23.3 µM. Moreover, the TGI is 29.7 µM with 786-0 renal, 24.2 µM with CAKI-1 renal and 23.5 µM in the experiment on MDA-MB-435.

The record behind these values is PubChem BioAssay (NCI).
